These results are taken from publication PMC4868099 (ACS Medicinal Chemistry Letters, 2016).

“Also recorded” adds a separate entry of the source.

The subject of experiment [1] is GLS (both KGA and GAC isoenzymes) over GLS2. The conditions noted are these: cited from earlier work.
Experiment [2] addresses T1, human kidney-type glutaminase (hKGA124–669) (Homo sapiens, UniProt O94925).
T1 sequence (O94925 124-669): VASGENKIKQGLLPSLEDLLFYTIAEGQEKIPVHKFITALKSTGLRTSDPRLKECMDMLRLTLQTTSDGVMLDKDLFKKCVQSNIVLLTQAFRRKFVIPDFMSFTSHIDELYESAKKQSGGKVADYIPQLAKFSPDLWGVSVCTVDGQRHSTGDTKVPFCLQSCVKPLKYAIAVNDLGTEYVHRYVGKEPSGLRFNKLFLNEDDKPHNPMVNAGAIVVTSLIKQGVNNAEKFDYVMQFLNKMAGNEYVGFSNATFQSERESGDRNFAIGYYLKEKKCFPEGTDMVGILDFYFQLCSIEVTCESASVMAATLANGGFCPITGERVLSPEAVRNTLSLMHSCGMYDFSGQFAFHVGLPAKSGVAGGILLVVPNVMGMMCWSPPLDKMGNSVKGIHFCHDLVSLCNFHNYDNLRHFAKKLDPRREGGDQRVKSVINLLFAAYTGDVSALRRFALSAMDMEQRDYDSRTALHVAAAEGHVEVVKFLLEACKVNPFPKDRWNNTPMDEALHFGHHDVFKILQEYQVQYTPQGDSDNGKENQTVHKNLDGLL
Format: biochemical.

The subject of a further experiment is MDA-MB-231. Put plainly: Cell growth / viability, CellTiter-Glo, MDA-MB-231. The format is cell-based, human. The settings on record: 72 h of incubation.
A further experiment deals with HCC1806. Put plainly: Cell growth / viability, CellTiter-Glo, HCC1806. Format: cell-based, human. The settings on record: 72 h of incubation.

For the compound `[N-]=[N+]=CC(=O)CC[C@H](N)C(=O)O` [DON, 6-Diazo-5-oxo-L-norleucine], the “selectivity GLS versus GLS2” value in experiment [1] is “inhibits both GLS and GLS2”.
With `O=C(Cc1ccccc1)Nc1nnc(CCCCc2nnc(NC(=O)Cc3ccc(O)cc3)s2)s1` [compound 2m, 4-hydroxy-N-[5-[4-[5-[(2-phenylacetyl)amino]-1,3,4-thiadiazol-2-yl]butyl]-1,3,4-thiadiazol-2-yl]-benzeneacetamide], the “increase in GLS inhibitory potency from the corresponding acetoxy derivative 2j” value in experiment [2] is about 8 fold. Moreover, the “time dependency of GLS inhibitory potency (effect of preincubation time)” value in experiment [2] (Figure 2) is given as “no time-dependent increase in GLS inhibitory potency; also recorded: did not exhibit time-dependency”. Further, in the experiment on MDA-MB-231, the “antiproliferative effect compared with BPTES and CB-839 in MDA-MB-231” value is recorded as “least effective”. Moreover, in the experiment with MDA-MB-231 (1000 nM, P < 0.05 compared to controls), the “growth inhibition of MDA-MB-231” value was “statistically significant growth inhibition”. Also, the “antiproliferative effect compared with BPTES and CB-839 in HCC1806” value in the experiment with HCC1806 is given as “least effective”.
In the case of `O=C(Cc1ccc(O)cc1)Nc1nnc(CCCCc2nnc(NC(=O)Cc3ccc(O)cc3)s2)s1` [2q], the “higher GLS inhibitory potency compared with 2p” value in experiment [2] is on record as 10 fold.
